Laboratory results: patent publication US20190119298A1, “FUSED 3-PHENYLTETRAMIC ACID DERIVATIVES HAVING HERBICIDAL ACTION” (Bayer CropScience Aktiengesellschaft, priority 2016, published 2019)

Legend:
Type in all cases: in vivo
Alopecurus myosuroides [1] = test: Pre-emergence herbicidal effect; details: 320 g/ha, scored visually after 3 weeks vs untreated controls, 100% = plants have died
Description: (§1) Seeds of monocotyledonous and dicotyledonous weed plants and crop plants are laid out in sandy loam soil in wood-fibre pots and covered with soil. The compounds of the invention, formulated in the form of wettable powders (WP) or as emulsion concentrates (EC), are then applied to the surface of the covering soil as aqueous suspension or emulsion at a water application rate equating to 600 to 800 L/ha with addition of 0.2% wetting agent. After the treatment, the pots are placed in a greenhouse and kept under good growth conditions for the trial plants. The damage to the test plants is scored visually after a test period of 3 weeks by comparison with untreated controls (herbicidal activity in percent (%): 100% activity=the plants have died, 0% activity=like control plants). ALOMY: Alopecurus myosuroides

Lolium multiflorum [2] = test: Pre-emergence herbicidal effect; details: 320 g/ha, scored visually after 3 weeks vs untreated controls, 100% = plants have died
Description: as §1, with “LOLMU: Lolium multiflorum” for “ALOMY: Alopecurus myosuroides”

Alopecurus myosuroides [3] = test: Post-emergence herbicidal effect; details: one-leaf stage, 320 g/ha, assessed visually after about 3 weeks, 100% = plants have died
Method: (§2) ALOMY: Alopecurus myosuroides Seeds of monocotyledonous and dicotyledonous weed and crop plants are laid out in sandy loam soil in wood-fibre pots, covered with soil and cultivated in a greenhouse under good growth conditions. 2 to 3 weeks after sowing, the test plants are treated at the one-leaf stage. The compounds of the invention, formulated in the form of wettable powders (WP) or as emulsion concentrates (EC), are then sprayed onto the green parts of the plants as aqueous suspension or emulsion at a water application rate equating to 600 to 800 L/ha with addition of 0.2% wetting agent. After the test plants have been left to stand in the greenhouse under optimal growth conditions for about 3 weeks, the action of the preparations is assessed visually in comparison to untreated controls (herbicidal action in percent (%): 100% activity=the plants have died, 0% activity=like control plants).

Avena fatua [4] = test: Post-emergence herbicidal effect; details: one-leaf stage, 320 g/ha, assessed visually after about 3 weeks, 100% = plants have died
Method: as §2, with “AVEFA: Avena fatua” for “ALOMY: Alopecurus myosuroides”

Echinochloa crus-galli [5] = test: Post-emergence herbicidal effect; details: one-leaf stage, 320 g/ha, assessed visually after about 3 weeks, 100% = plants have died
Method: as §2, with “ECHCG: Echinochloa crus-galli” for “ALOMY: Alopecurus myosuroides”

Lolium multiflorum [6] = test: Post-emergence herbicidal effect; details: one-leaf stage, 320 g/ha, assessed visually after about 3 weeks, 100% = plants have died
Method: as §2, with “LOLMU: Lolium multiflorum” for “ALOMY: Alopecurus myosuroides”

Setaria viridis [7] = test: Post-emergence herbicidal effect; details: one-leaf stage, 320 g/ha, assessed visually after about 3 weeks, 100% = plants have died
Method: as §2, with “SETVI: Setaria viridis” for “ALOMY: Alopecurus myosuroides”

Avena fatua [8] = test: Pre-emergence herbicidal effect; details: 320 g/ha, scored visually after 3 weeks vs untreated controls, 100% = plants have died
Description: as §1, with “AVEFA: Avena fatua” for “ALOMY: Alopecurus myosuroides”

Echinochloa crus-galli [9] = test: Pre-emergence herbicidal effect; details: 320 g/ha, scored visually after 3 weeks vs untreated controls, 100% = plants have died
Description: as §1, with “ECHCG: Echinochloa crus-galli” for “ALOMY: Alopecurus myosuroides”

Setaria viridis [10] = test: Pre-emergence herbicidal effect; details: 320 g/ha, scored visually after 3 weeks vs untreated controls, 100% = plants have died
Description: as §1, with “SETVI: Setaria viridis” for “ALOMY: Alopecurus myosuroides”

Compound	Pre-emergence action ALOMY (herbicidal activity in percent) (Alopecurus myosuroides [1]) [%]	Pre-emergence action LOLMU (herbicidal activity in percent) (Lolium multiflorum [2]) [%]	Post-emergence effectiveness ALOMY (herbicidal action in percent) (Alopecurus myosuroides [3]) [%]	Post-emergence effectiveness AVEFA (herbicidal action in percent) (Avena fatua [4]) [%]	Post-emergence effectiveness ECHCG (herbicidal action in percent) (Echinochloa crus-galli [5]) [%]	Post-emergence effectiveness LOLMU (herbicidal action in percent) (Lolium multiflorum [6]) [%]	Post-emergence effectiveness SETVI (herbicidal action in percent) (Setaria viridis [7]) [%]	Pre-emergence action AVEFA (herbicidal activity in percent) (Avena fatua [8]) [%]	Pre-emergence action ECHCG (herbicidal activity in percent) (Echinochloa crus-galli [9]) [%]	Pre-emergence action SETVI (herbicidal activity in percent) (Setaria viridis [10]) [%]
Cc1cc(C)c(C2=C(O)C3COCCCN3C2=O)c(C)c1 (racemic) [Ia-2-1]	80	100	100	100	100	100	100	–	–	–
CCc1cc(C)cc(CC)c1C1=C(O)C2COCCCN2C1=O (racemic) [Ia-2-2]	80	100	100	100	100	100	100	90	100	100
CCc1cc(C)cc(CC)c1C1=C(O)C2CCOCCN2C1=O (stereo not drawn) [Example Ia-1-3, 8-(2,6-Diethyl-4-methylphenyl)-9-hydroxy-1,4,5,9a-tetrahydropyrrolo[1,2-d][1,4]oxazepin-7(2H)-one]	100	100	100	100	100	100	100	100	100	100
CCc1cc(C)cc(CC)c1C1=C(OC(=O)OC)C2CCOCCN2C1=O (stereo not drawn) [Example Ib-1-1, 8-(2,6-Diethyl-4-methylphenyl)-7-oxo-1,2,4,5,7,9a-hexahydropyrrolo[1,2-d][1,4]oxazepin-9-yl methyl carbonate]	100	100	100	100	100	100	100	100	100	100
CCc1cccc(C)c1C1=C(OC(C)=O)C2CCOCCN2C1=O (stereo not drawn) [Ib-1-15]	100	100	100	100	100	100	100	–	100	100
CCOC(=O)OC1=C(c2c(CC)cc(Cl)cc2OC)C(=O)N2CCOCCC12 (stereo not drawn) [Ib-1-17]	100	–	100	100	100	100	100	100	100	100
CCc1cc(C)cc(C)c1C1=C(OC(C)=O)C2=CCOCCN2C1=O [Ib-3-4]	–	–	90	80	90	80	100	–	–	–
CCc1cc(Cl)cc(OC)c1C1=C(OC(=O)C(C)(C)C)C2=CCOCCN2C1=O [Ib-3-10]	90	100	100	100	100	100	100	–	100	100
